Measured values from patent US10562891B2, “Quinazolinones as PARP14 inhibitors” (Ribon Therapeutics Inc., priority 2017, dated 2020).
Structures can show the parent of a compound that is named as a salt.

Each compound was assayed against catalytic domain of human PARP14 (Homo sapiens (Human), UniProt Q460N5) (assay: Enzymatic assay for inhibition of PARP14 (DELFIA, auto-modification with biotin-NAD)). Settings: auto-modification of PARP14 by biotin-NAD, 50 nM PARP14, 3 μM biotin-NAD.
Assay type: biochemical
Protocol: An N-terminal His-TEV fusion tag was used to purify the protein from cell lysates. The His-TEV tag was left on the protein for use in the enzymatic assay.
Enzymatic inhibition of PARP14 was measured using a dissociation-enhanced lanthanide fluorescence immunoassay (DELFIA) monitoring the auto-modification of PARP14 by biotinylated nicotinamide adenine dinucleotide (biotin-NAD). 1 μL of a dose response curve of each test compound was spotted in 384-well nickel-coated white microplates (Thermo) using a Mosquito (TTP Labtech). Reactions were performed in a 50 μL volume by adding 40 μL of PARP14 in assay buffer (20 mM HEPES pH==8, 100 mM NaCl, 0.1% bovine serum albumin, 2 mM DTT and 0.002%0 Tween20), incubating with test compound at 25° C. for 30 min, then adding 10 μL of biotin-NAD (Biolog). The final concentrations of PARP14 and biotin-NAD are 50 nM and 3 μM, respectively. Reactions proceeded at 25° C. for 3 h, then were quenched with 5 μL of 10 mM unmodified nicotinamide adenine dinucleotide (Sigma-Aldrich). The quenched reactions were washed 3 times with 100 μL of TBST wash buffer (50 mM Tris-HCl, 150 mM NaCl and 0.1% Tween20). Next, to the washed and dried plate was added 25 μL of DELFIA Europium-N1 streptavidin (Perkin Elmer) diluted in DELFIA assay buffer (Perkin Elmer). After a 30 min incubation at 25° C., the plate was washed 5 times with TBST wash buffer. Finally, 25 μL of DELFIA enhancement solution was added. After a 5 min incubation the plate was read on an Envision platereader equipped with a LANCE/DELFIA top mirror (Perkin Elmer) using excitation of 340 nm and emission of 615 nm to measure the amount of Europium present in each well, informing on the amount of biotin-NAD that was transferred in the automodification reaction.
[formula] where ex615cmpd is the emission from the compound treated well, ex615min is the emission from the rucaparib treated positive control well and ex615max is the emission from the DMSO treated negative control well.
The % inhibition values were plotted as a function of compound concentration and the following 4-parameter fit was applied to derive the IC50 values:
[formula] where top and bottom are normally allowed to float, but may be fixed at 100 or 0 respectively in a 3-parameter fit. The Hill Coefficient is normally allowed to float but may also be fixed at 1 in a 3-parameter fit. Y is the % inhibition and X is the compound concentration.

catalytic domain of human PARP14, sequence (Q460N5 1611-1801): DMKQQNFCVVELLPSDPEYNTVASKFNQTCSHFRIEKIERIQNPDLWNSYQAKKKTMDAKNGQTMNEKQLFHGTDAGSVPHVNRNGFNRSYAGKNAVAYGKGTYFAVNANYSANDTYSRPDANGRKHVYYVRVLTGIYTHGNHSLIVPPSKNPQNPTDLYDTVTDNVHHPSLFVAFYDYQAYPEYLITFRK

| SMILES | IC50 |
| --- | --- |
| Cc1cccc2c(=O)[nH]c(CSC3CCN(CCN)CC3)nc12 [Example 163, 2-(((1-(2-Aminoethyl)piperidin-4-yl)thio)methyl)-8-methylquinazolin-4(3H)-one dihydrochloride] | 1000 to 10000 nM |
| Cc1cccc2c(=O)[nH]c(CS[C@H]3CC[C@@H](CO)OC3)nc12 (relative stereo) [Example 221, 2-(((Cis-6-(Hydroxymethyl)tetrahydro-2H-pyran-3-yl)thio)methyl)-8-methylquinazolin-4(3H)-one] | 1000 to 10000 nM |
| O=c1[nH]c(CSC2CCOCC2)nc2ncccc12 [Example 43, 2-(((Tetrahydro-2H-pyran-4-yl)thio)methyl)pyrido[2,3-d]pyrimidin-4(3H)-one] | > 10000 nM |
| COc1cc2c(=O)[nH]c(CSC3CCNCC3)nc2cc1NCC1CCC1 [Example 230, 7-((Cyclobutylmethyl)amino)-6-methoxy-2-((piperidin-4-ylthio)methyl)quinazolin-4(3H)-one Hydrochloride] | 1000 to 10000 nM |
| CC(=O)NC[C@H]1CC[C@H](SCc2nc3c(C)cccc3c(=O)[nH]2)CC1 [Example 178, N-(((trans)-4-(((8-methyl-4-oxo-3,4-dihydroquinazolin-2-yl)methyl)thio)cyclohexyl)methyl)acetamide] | 1000 to 10000 nM |
| COc1ccc(CN2CCC(SCc3nc4c(C)cccc4c(=O)[nH]3)CC2)nc1 [Example 157, 2-(((1-((5-Methoxypyridin-2-yl)methyl)piperidin-4-yl)thio)methyl)-8-methylquinazolin-4(3H)-one bistrifluoroacetate] | < 1000 nM |
| O=c1[nH]c(CSC2CCCCC2)nc2cc(OCC3CCC3)cc(F)c12 [Example 309, 7-(Cyclobutylmethoxy)-2-((cyclohexylthio)methyl)-5-fluoroquinazolin-4(3H)-one] | < 1000 nM |
| Cc1cccc2c(=O)[nH]c(CSC3CCC(CN)CC3)nc12 (stereo not shown) [Example 64, 2-(((4-(Aminomethyl)cyclohexyl)thio)methyl)-8-methylquinazolin-4(3H)-one Trifluoroacetate] | < 1000 nM |
| Cc1cccc2c(=O)[nH]c(CSC3CCN(CCc4ccccc4)CC3)nc12 [Example 147, 8-Methyl-2-(((1-phenethylpiperidin-4-yl)thio)methyl)quinazolin-4(3H)-one trifluoroacetate] | < 1000 nM |
| Cc1ccc(F)c2c(=O)[nH]c(CSC3CCNCC3)nc12 [Example 51, 5-Fluoro-8-methyl-2-((piperidin-4-ylthio)methyl)quinazolin-4(3H)-one Hydrochloride] | < 1000 nM |
| CO[C@H]1CC[C@H](Nc2cc3nc(CS[C@H]4CC[C@H](O)CC4)[nH]c(=O)c3c(F)c2F)CC1 [Example 377] | < 1000 nM |
| Cc1cccc2c(=O)[nH]c(CSC3CCN(C(=O)[C@H](N)CCCCN)CC3)nc12 [Example 172, 2-(((1-(D-Lysyl)piperidin-4-yl)thio)methyl)-8-methylquinazolin-4(3H)-one Dihydrochloride] | < 1000 nM |
| O=c1[nH]c(CS[C@H]2CC[C@H](O)CC2)nc2cc(F)ccc12 [Example 46, 7-Fluoro-2-((((trans)-4-hydroxycyclohexyl)thio)methyl)quinazolin-4(3H)-one] | 1000 to 10000 nM |
| CO[C@H]1C[C@@H](Nc2cc3nc(CS[C@H]4CC[C@H](NC(C)=O)CC4)[nH]c(=O)c3c(F)c2F)C1 [Example 389] | < 1000 nM |
| O=c1[nH]c(CS[C@@H]2CCNC[C@H]2F)nc2cc(OCC3CC3)cc(F)c12 (relative stereo) [Example 297, 7-(Cyclopropylmethoxy)-5-fluoro-2-(((trans-3-fluoropiperidin-4-yl)thio)methyl)quinazolin-4(3H)-one hydrochloride] | 1000 to 10000 nM |
| O=c1[nH]c(CSC2CCOCC2)nc2cc(NCc3ccncc3)ccc12 [Example 117, 7-((Pyridin-4-ylmethyl)amino)-2-(((tetrahydro-2H-pyran-4-yl)thio)methyl)quinazolin-4(3H)-one] | 1000 to 10000 nM |
| Cc1c(Nc2ccccc2)ccc2c(=O)[nH]c(CSC3CCOCC3)nc12 [Example 95, 8-Methyl-7-(phenylamino)-2-(((tetrahydro-2H-pyran-4-yl)thio)methyl) quinazolin-4(3H)-one] | 1000 to 10000 nM |
| CC(C)Nc1ccc2c(=O)[nH]c(CSC3CCOCC3)nc2c1 [Example 116, 7-(Isopropylamino)-2-(((tetrahydro-2H-pyran-4-yl)thio)methyl)quinazolin-4(3H)-one] | < 1000 nM |
| CS(=O)(=O)N1CCC[C@@H](Nc2cc(F)c3c(=O)[nH]c(CS[C@H]4CC[C@H](O)CC4)nc3c2)C1 [Example 269, 5-Fluoro-2-(((trans-4-hydroxycyclohexyl)thio)methyl)-7-(((R)-1-(methylsulfonyl)piperidin-3-yl)amino)quinazolin-4(3H)-one] | < 1000 nM |
| O=c1[nH]c(CSC2CCOCC2)nc2cnccc12 [Example 37, 2-(((Tetrahydro-2H-pyran-4-yl)thio)methyl)pyrido[3,4-d]pyrimidin-4(3H)-one] | > 10000 nM |
| O=c1[nH]c(CSC2CCCNCC2)nc2cc(NC3CCCC3)ccc12 (stereo not shown) [Example 190, 2-((azepan-4-ylthio)methyl)-7-(cyclopentylamino)quinazolin-4(3H)-one] | < 1000 nM |
| Cc1c(Oc2ccccc2)ccc2c(=O)[nH]c(CSC3CCOCC3)nc12 [Example 135, 8-Methyl-7-phenoxy-2-(((tetrahydro-2H-pyran-4-yl)thio)methyl)quinazolin-4(3H)-one] | > 10000 nM |

Other lines, results leading:

| IC50 | SMILES |
| --- | --- |
| 1000 to 10000 nM | O=c1[nH]c(CSC2CCOCC2)nc2cc(CCC3CCCCC3)cc(F)c12 [Example 368] |
| < 1000 nM | O=c1[nH]c(CSC2CCOCC2)nc2cc(OC[C@H]3CCOC3)cc(F)c12 [Example 239b, (S)-5-fluoro-2-(((tetrahydro-2H-pyran-4-yl)thio)methyl)-7-((tetrahydrofuran-3-yl)methoxy)quinazolin-4(3H)-one] |
| < 1000 nM | O=c1[nH]c(CS[C@H]2C[C@@H](O)C2)nc2cc(OCC3CCOCC3)cc(F)c12 [Example 405] |
| < 1000 nM | O=c1[nH]c(CSC2CCOCC2)nc2cc(OCC3COCCO3)cc(F)c12 (stereo not shown) [Example 344] |
| < 1000 nM | O=c1[nH]c(CSC2CCNCC2)nc2cc(NCCN3CCOCC3)cc(F)c12 [Example 277, 5-Fluoro-7-((2-morpholinoethyl)amino)-2-((piperidin-4-ylthio)methyl)quinazolin-4(3H)-one dihydrochloride] |
| < 1000 nM | CC(=O)N1CCC(COc2cc(F)c3c(=O)[nH]c(CS[C@H]4CC[C@H](O)CC4)nc3c2)CC1 [Example 396] |
| < 1000 nM | O=c1[nH]c(CSC2CCOCC2)nc2cc(NC3CCC3)cc(F)c12 [Example 251, 7-(Cyclobutylamino)-5-fluoro-2-(((tetrahydro-2H-pyran-4-yl)thio)methyl)quinazolin-4(3H)-one] |
| > 10000 nM | Nc1ccc2c(=O)[nH]c(CSC3CCOCC3)nc2c1 [Example 74, 7-Amino-2-(((tetrahydro-2H-pyran-4-yl)thio)methyl)quinazolin-4(3H)-one] |
| < 1000 nM | COCC(=O)N1CCC(COc2cc(F)c3c(=O)[nH]c(CSC4CCOCC4)nc3c2)CC1 [Example 424] |
| < 1000 nM | O=c1[nH]c(CSC2CCOCC2)nc2cc(NCC3CCOCC3)c(F)c(F)c12 [Example 338] |
| < 1000 nM | O=c1[nH]c(CSC2CCOCC2)nc2cc(NC[C@@H]3CCOC3)c(F)c(F)c12 [Example 323a, (S)-5,6-Difluoro-2-(((tetrahydro-2H-pyran-4-yl)thio)methyl)-7-(((tetrahydrofuran-3-yl)methyl)amino)quinazolin-4(3H)-one] |
| < 1000 nM | O=c1[nH]c(CS[C@H]2CC[C@H](O)CC2)nc2cc(OCC3CCOC3)cc(F)c12 (stereo partly drawn) [Example 324, 5-Fluoro-2-((((trans)-4-hydroxycyclohexyl)thio)methyl)-7-((tetrahydrofuran-3-yl)methoxy)quinazolin-4(3H)-one] |
| < 1000 nM | O=c1[nH]c(CSC2CCOCC2)nc2cc(NC3CCCCC3)cc(F)c12 [Example 247, 7-(Cyclohexylamino)-5-fluoro-2-(((tetrahydro-2H-pyran-4-yl)thio)methyl)quinazolin-4(3H)-one] |
| > 10000 nM | CC(Nc1cc2nc(CSC3CCOCC3)[nH]c(=O)c2c(F)c1F)C1CCOCC1 (stereo not shown) [Example 400] |
| < 1000 nM | O=c1[nH]c(CSC2CCOCC2)nc2cc(OCC3CC3)cc(F)c12 [Example 291, 7-(Cyclopropylmethoxy)-5-fluoro-2-(((tetrahydro-2H-pyran-4-yl)thio)methyl)quinazolin-4(3H)-one] |
